Measured values as given in patent publication US20090143410A1, “Isoxazolines for Controlling Invertebrate Pests” (priority 2005, published 2009).

System: potato leafhopper (Empoasca fabae Harris)
Assay: Test D: control of potato leafhopper on bean plant, contact and/or systemic
Assay type: in vivo
Conditions: sprayed at 50 ppm, 18 to 21 day old adults on Longio bean plant, 6 days, 19-21° C., 50-70% relative humidity, read-out: pest control: mortality
Method: Test compounds were formulated using a solution containing 10% acetone, 90% water and 300 ppm X-77™ Spreader Lo-Foam Formula non-ionic surfactant containing alkylarylpolyoxyethylene, free fatty acids, glycols and isopropanol (Loveland Industries, Inc. Greeley, Colo., USA). The formulated compounds were applied in 1 mL of liquid through a SUJ2 atomizer nozzle with ⅛ JJ custom body (Spraying Systems Co. Wheaton, Ill., USA) positioned 1.27 cm (0.5 inches) above the top of each test unit. All experimental compounds in these tests were sprayed at 250 ppm replicated three times. After spraying of the formulated test compound, each test unit was allowed to dry for 1 h and then a black, screened cap was placed on top. The test units were held for 6 days in a growth chamber at 25° C. and 70% relative humidity. Plant feeding damage was then visually assessed based on foliage consumed.
For evaluating control of potato leafhopper (Empoasca fabae Harris) through contact and/or systemic means, the test unit consisted of a small open container with a 5-6-day old Longio bean plant (primary leaves emerged) inside. White sand was added to the top of the soil and one of the primary leaves was excised prior to application. […] Each test unit was then visually assessed for insect mortality.

O=C(NCc1ccccn1)c1cnc(C2=NOC(c3cc(Cl)cc(Cl)c3)(C(F)(F)F)C2)nc1C(F)(F)F (centres unmarked) [Compound 7, 2-[5-(3,5-dichlorophenyl)-4,5-dihydro-5-(trifluoromethyl)-3-isoxazolyl]-N-(2-pyridinylmethyl)-4-(trifluoromethyl)-5-pyrimidinecarboxamide]
mortality at 50 ppm: ≥ 80%

O=C(NCC(F)(F)F)c1cnc(C2=NOC(c3cc(Cl)cc(Cl)c3)(C(F)(F)F)C2)nc1C(F)(F)F (centres unmarked) [Compound 10, 2-[5-(3,5-dichlorophenyl)-4,5-dihydro-5-(trifluoromethyl)-3-isoxazolyl]-N-(2,2,2-trifluoroethyl)-4-(trifluoromethyl)-5-pyrimidinecarboxamide]
mortality at 50 ppm: ≥ 80%
